Reference: the supplement of paper PMC13380429

How the values were obtained:
Settings in all cases: 72 h
Calu-3 [1] = experiment: relative viability EC50 (midpoint between 100% and the lowest measured viability); higher = less toxic
U2OS [2] = experiment: as above
Vero E6 [3] = experiment: as above
Caco-2 [4] = experiment: as above
HepG2 [5] = experiment: as above
Calu-3 [6] = experiment: cell viability relative to DMSO; higher = less toxic
U2OS [7] = experiment: as above
Vero E6 [8] = experiment: as above
Caco-2 [9] = experiment: as above
HepG2 [10] = experiment: as above
Calu-3 [11] = experiment: drug sensitivity score (DSS) for viability; higher = more toxic; extreme values may be limits of the assay
U2OS [12] = experiment: as above
Vero E6 [13] = experiment: as above
Caco-2 [14] = experiment: as above
HepG2 [15] = experiment: as above

Row | SMILES | relative viability EC50 (Calu-3 [1]) [µM] | relative viability EC50 (U2OS [2]) [µM] | relative viability EC50 (Vero E6 [3]) [µM] | relative viability EC50 (Caco-2 [4]) [µM] | relative viability EC50 (HepG2 [5]) [µM] | cell viability (Calu-3 [6]; 1 nM) [%] | cell viability (Calu-3 [6]; 10 nM) [%] | cell viability (Calu-3 [6]; 100 nM) [%] | cell viability (Calu-3 [6]; 1000 nM) [%] | cell viability (Calu-3 [6]; 10000 nM) [%] | cell viability (U2OS [7]; 1 nM) [%] | cell viability (U2OS [7]; 10 nM) [%] | cell viability (U2OS [7]; 100 nM) [%] | cell viability (U2OS [7]; 1000 nM) [%] | cell viability (U2OS [7]; 10000 nM) [%] | cell viability (Vero E6 [8]; 1 nM) [%] | cell viability (Vero E6 [8]; 10 nM) [%] | cell viability (Vero E6 [8]; 100 nM) [%] | cell viability (Vero E6 [8]; 1000 nM) [%] | cell viability (Vero E6 [8]; 10000 nM) [%] | cell viability (Caco-2 [9]; 1 nM) [%] | cell viability (Caco-2 [9]; 10 nM) [%] | cell viability (Caco-2 [9]; 100 nM) [%] | cell viability (Caco-2 [9]; 1000 nM) [%] | cell viability (Caco-2 [9]; 10000 nM) [%] | cell viability (HepG2 [10]; 1 nM) [%] | cell viability (HepG2 [10]; 10 nM) [%] | cell viability (HepG2 [10]; 100 nM) [%] | cell viability (HepG2 [10]; 1000 nM) [%] | cell viability (HepG2 [10]; 10000 nM) [%] | drug sensitivity score (Calu-3 [11]) | drug sensitivity score (U2OS [12]) | drug sensitivity score (Vero E6 [13]) | drug sensitivity score (Caco-2 [14]) | drug sensitivity score (HepG2 [15])
1 | CC(N)Cc1ccc(O)cc1 (stereo not given) [hydroxyamphetamine] | > 10 | > 10 | > 10 | > 10 | > 10 | 92.5 | 94.4 | 98.7 | 100 | 107 | 98.6 | 101 | 96.2 | 102 | 94.5 | 99.9 | 102 | 99.4 | 95.1 | 104 | 107 | 92.8 | 94.2 | 98.7 | 99.5 | 102 | 103 | 93.4 | 93.7 | 96 | 0 | 0 | 0 | 0 | 0
2 | O=c1c(O[C@@H]2O[C@H](CO)[C@H](O)[C@H](O)[C@H]2O)c(-c2ccc(O)c(O)c2)oc2cc(O)cc(O)c12 [hyperin] | > 10 | > 10 | > 10 | > 10 | > 10 | 96.9 | 86.3 | 102 | 104 | 98.9 | 99.5 | 97.3 | 101 | 98.4 | 100 | 98 | 97.2 | 94 | 97.7 | 108 | 104 | 93.3 | 99 | 107 | 105 | 84.8 | 95.7 | 87.3 | 103 | 97.9 | 0 | 0 | 0 | 0 | 0
3 | CNC(=O)[C@H](Cc1c[nH]c2ccccc12)NC(=O)[C@@H](CC(=O)NO)CC(C)C [ilomastat] | > 10 | > 10 | > 10 | > 10 | > 10 | 102 | 98.6 | 107 | 97.3 | 90.4 | 97.6 | 98.2 | 85.8 | 102 | 84.7 | 97.4 | 97 | 95 | 93.2 | 88.7 | 94.1 | 104 | 102 | 96.6 | 102 | 107 | 90.5 | 104 | 90.5 | 103 | 0 | 0 | 0 | 0 | 0
4 | CS(=O)(=O)Oc1ccc2c(NC(N)=O)c(C(=O)c3ccc(Cl)cc3Cl)oc2c1 [lirimilast] | > 10 | > 10 | > 10 | > 10 | > 10 | 98.8 | 106 | 91.4 | 101 | 104 | 95.5 | 99 | 97.9 | 107 | 102 | 98.6 | 94.7 | 97 | 84.4 | 99.6 | 98.5 | 96.3 | 102 | 108 | 110 | 94.3 | 89.7 | 106 | 94.7 | 95.9 | 0 | 0 | 0 | 0 | 0
5 | O=C(O)c1ccccc1Nc1cc(Cl)ccc1C(=O)O [lobenzarit] | > 10 | > 10 | > 10 | > 10 | > 10 | 111 | 88.1 | 108 | 95.2 | 90.3 | 91.3 | 96 | 101 | 96.9 | 104 | 97.7 | 97.3 | 86 | 87.4 | 114 | 95.9 | 101 | 99.1 | 93.1 | 98.2 | 106 | 109 | 95.6 | 103 | 105 | 0.2 | 0 | 0 | 0 | 0
6 | NCCCC[C@H](NC(=O)[C@@H]1CCCN1C(=O)[C@@H]1CSSC[C@H](N)C(=O)N[C@@H](Cc2ccc(O)cc2)C(=O)N[C@@H](Cc2ccccc2)C(=O)N[C@@H](CCC(N)=O)C(=O)N[C@@H](CC(N)=O)C(=O)N1)C(=O)NCC(N)=O [lypressin] | > 10 | > 10 | > 10 | > 10 | > 10 | 95.6 | 98.1 | 103 | 93.4 | 92.2 | 99.7 | 105 | 97.5 | 98.8 | 101 | 97.4 | 101 | 95.4 | 99.1 | 100 | 98.6 | 99.6 | 97.8 | 102 | 101 | 105 | 97.9 | 97.8 | 100 | 100 | 0 | 0 | 0 | 0 | 0
7 | C[N+]1(C)CCCC(OC(=O)C(O)(c2ccccc2)c2ccccc2)C1 (stereo not given) [mepenzolate] | > 10 | > 10 | > 10 | > 10 | > 10 | 105 | 103 | 96.1 | 110 | 94.5 | 99.7 | 101 | 96.6 | 101 | 96.9 | 94.9 | 105 | 97.5 | 99.6 | 99.8 | 91.3 | 87.1 | 96.6 | 101 | 101 | 107 | 98.1 | 104 | 91.9 | 94.3 | 0 | 0 | 0 | 0 | 0
8 | CN(C)C(=O)Oc1ccc[n+](C)c1 [mestinon] | > 10 | > 10 | > 10 | > 10 | > 10 | 96.5 | 95.1 | 102 | 93.7 | 94.5 | 104 | 102 | 106 | 98.6 | 104 | 99.8 | 108 | 102 | 104 | 93.5 | 91.5 | 95.9 | 107 | 99.8 | 99.1 | 95.1 | 93 | 101 | 91.2 | 96.3 | 0 | 0 | 0 | 0 | 0
9 | C[N+]1(C)[C@@H]2CC[C@H]1C[C@@H](OC(=O)C(CO)c1ccccc1)C2 (stereo not given in full) [methylatropine-nitrate] | > 10 | > 10 | > 10 | > 10 | > 10 | 93 | 100 | 108 | 97.2 | 106 | 95.4 | 95.4 | 100 | 100 | 101 | 95.6 | 98.8 | 95.3 | 99.1 | 104 | 96.9 | 93.4 | 108 | 104 | 99.6 | 96.7 | 105 | 102 | 98.7 | 99.8 | 0 | 0 | 0 | 0 | 0
10 | Cc1c(NC(=O)c2cccnc2)c(=O)n(-c2ccccc2)n1C [nifenazone] | > 10 | > 10 | > 10 | > 10 | > 10 | 106 | 106 | 92.3 | 100 | 106 | 98.3 | 104 | 102 | 105 | 101 | 105 | 101 | 99.3 | 101 | 97.2 | 110 | 98.7 | 93.2 | 97.1 | 89.4 | 105 | 91.9 | 109 | 94.4 | 90.6 | 0 | 0 | 0 | 0 | 0
11 | O=C(O)c1cccnc1Nc1cccc(C(F)(F)F)c1 [niflumic-acid] | > 10 | > 10 | > 10 | > 10 | > 10 | 100 | 90.9 | 98.7 | 99.7 | 95.2 | 99.7 | 98 | 104 | 106 | 102 | 100 | 96 | 97.4 | 97.3 | 101 | 108 | 98.5 | 98.4 | 96.2 | 100 | 103 | 101 | 99.6 | 97.2 | 104 | 0 | 0 | 0 | 0 | 0
12 | COC(=O)C1=C(C#N)NC(C)=C(C(=O)OC(C)C)C1c1cccc([N+](=O)[O-])c1 (stereo not given) [nilvadipine] | > 10 | > 10 | > 10 | > 10 | > 10 | 90.9 | 101 | 90.8 | 97.5 | 120 | 96.6 | 98.4 | 97 | 96.7 | 104 | 95.9 | 93.6 | 100 | 97.9 | 109 | 96.1 | 84.7 | 92.7 | 94.1 | 96 | 108 | 98.6 | 109 | 96.1 | 95 | 0 | 0 | 0 | 0 | 0
13 | COC(=O)N[C@H](C(=O)N1CCC[C@H]1C(=O)Nc1ccc([C@@H]2CC[C@@H](c3ccc(NC(=O)[C@@H]4CCCN4C(=O)[C@@H](NC(=O)OC)C(C)C)cc3)N2c2ccc(C(C)(C)C)cc2)cc1)C(C)C [ombitasvir] | > 10 | > 10 | > 10 | > 10 | > 10 | 105 | 100 | 108 | 98.1 | 91.7 | 94.3 | 95.1 | 100 | 98 | 86.5 | 99.8 | 96.2 | 94.2 | 94.9 | 102 | 96 | 104 | 95.1 | 96.8 | 100 | 99.4 | 100 | 92.1 | 92.3 | 108 | 0 | 0.3 | 0 | 0 | 0
